What was measured:
Experiment in all cases: relative viability (nuclei count vs DMSO), 5 days (fraction); higher = more cells survive
NCI-H1993 = system: NCI-H1993
Method in brief: (§1)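 Relative viability is defined as nuclei in treated wells over nuclei in vehicle wells. Duplicate plates were run and medians reported. Lung cancer cell lines in 1536-well plates were dosed by pin tool one day after seeding, with one drug or with a fixed anchor-drug dose plus five library-drug doses (not always all listed) in √10 steps, and nuclei were counted after 5 days.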

LCLC-103H = system: LCLC-103H
Method in brief: as §1

BEN = system: BEN
Method in brief: as §1

NCI-H647 = system: NCI-H647
Method in brief: as §1

LOU-NH91 = system: LOU-NH91
Method in brief: as §1

NCI-H441 = system: NCI-H441
Method in brief: as §1

NCI-H2347 = system: NCI-H2347
Method in brief: as §1

NCI-H3122 = system: NCI-H3122
Method in brief: as §1

NCI-H522 = system: NCI-H522
Method in brief: as §1

NCI-H2126 = system: NCI-H2126
Method in brief: as §1

HARA = system: HARA
Method in brief: as §1

HCC-44 = system: HCC-44
Method in brief: as §1

NCI-H727 = system: NCI-H727
Method in brief: as §1

201T = system: 201T
Method in brief: as §1

EMC-BAC-2 = system: EMC-BAC-2
Method in brief: as §1

NCI-H596 = system: NCI-H596
Method in brief: as §1

NCI-H650 = system: NCI-H650
Method in brief: as §1

NCI-H838 = system: NCI-H838
Method in brief: as §1

NCI-H2087 = system: NCI-H2087
Method in brief: as §1

NCI-H23 = system: NCI-H23
Method in brief: as §1

NCI-H1395 = system: NCI-H1395
Method in brief: as §1

`COc1nc(C)cnc1NS(=O)(=O)c1cccnc1-c1ccc(-c2nnco2)cc1` [Zibotentan] + NC(=O)Nc1cc(-c2cccc(F)c2)sc1C(=O)N[C@H]1CCCNC1 [AZD7762] (partner 0.2 µM) showed a relative viability (NCI-H1993; first compound 0.08 µM) of 0.667, a relative viability (NCI-H1993; first compound 0.253 µM) of 0.778 and a relative viability (NCI-H1993; first compound 0.8 µM) of 0.728. For the same compound, the relative viability (NCI-H1993; first compound 2.53 µM) was 0.881, the relative viability (LCLC-103H; first compound 0.08 µM) was 0.77 and the relative viability (LCLC-103H; first compound 0.253 µM) was 0.786. It also gave a relative viability (LCLC-103H; first compound 0.8 µM) of 0.778, a relative viability (LCLC-103H; first compound 2.53 µM) of 0.752 and a relative viability (BEN; first compound 0.08 µM) of 0.7. It also gave a relative viability (BEN; first compound 0.253 µM) of 0.588, a relative viability (BEN; first compound 0.8 µM) of 0.682 and a relative viability (BEN; first compound 2.53 µM) of 0.677. The relative viability (NCI-H647; first compound 0.08 µM) was 0.353, the relative viability (NCI-H647; first compound 0.253 µM) was 0.302 and the relative viability (NCI-H647; first compound 0.8 µM) was 0.384. The relative viability (NCI-H647; first compound 2.53 µM) was 0.676, the relative viability (LOU-NH91; first compound 0.08 µM) was 0.838 and the relative viability (LOU-NH91; first compound 0.253 µM) was 0.702. The relative viability (LOU-NH91; first compound 0.8 µM) was 0.773, the relative viability (LOU-NH91; first compound 2.53 µM) was 0.795 and the relative viability (NCI-H441; first compound 0.08 µM) was 1.3. It also gave a relative viability (NCI-H441; first compound 0.253 µM) of 1.08, a relative viability (NCI-H441; first compound 0.8 µM) of 0.994 and a relative viability (NCI-H441; first compound 2.53 µM) of 1.12. It also gave a relative viability (NCI-H2347; first compound 0.08 µM) of 0.733, a relative viability (NCI-H2347; first compound 0.253 µM) of 0.723 and a relative viability (NCI-H2347; first compound 0.8 µM) of 0.742. It also gave a relative viability (NCI-H2347; first compound 2.53 µM) of 0.945, a relative viability (NCI-H3122; first compound 0.08 µM) of 1.01 and a relative viability (NCI-H3122; first compound 0.253 µM) of 0.999. The relative viability (NCI-H3122; first compound 0.8 µM) was 0.915, the relative viability (NCI-H3122; first compound 2.53 µM) was 0.966 and the relative viability (NCI-H522; first compound 0.08 µM) was 0.835. For the same compound, the relative viability (NCI-H522; first compound 0.253 µM) was 0.862, the relative viability (NCI-H522; first compound 0.8 µM) was 0.773 and the relative viability (NCI-H522; first compound 2.53 µM) was 0.856. For the same compound, the relative viability (NCI-H2126; first compound 0.08 µM) was 0.986, the relative viability (NCI-H2126; first compound 0.253 µM) was 0.987 and the relative viability (NCI-H2126; first compound 0.8 µM) was 0.915. It also gave a relative viability (NCI-H2126; first compound 2.53 µM) of 1.04, a relative viability (HARA; first compound 0.08 µM) of 0.254 and a relative viability (HARA; first compound 0.8 µM) of 0.302. The relative viability (HARA; first compound 2.53 µM) was 0.416, the relative viability (HCC-44; first compound 0.08 µM) was 1.01 and the relative viability (HCC-44; first compound 0.253 µM) was 0.962. It also gave a relative viability (HCC-44; first compound 0.8 µM) of 0.968, a relative viability (HCC-44; first compound 2.53 µM) of 1.03 and a relative viability (NCI-H727; first compound 0.08 µM) of 0.575. The relative viability (NCI-H727; first compound 0.253 µM) was 0.572, the relative viability (NCI-H727; first compound 0.8 µM) was 0.497 and the relative viability (NCI-H727; first compound 2.53 µM) was 0.296. It also gave a relative viability (201T; first compound 0.08 µM) of 0.644, a relative viability (201T; first compound 0.253 µM) of 0.604 and a relative viability (201T; first compound 0.8 µM) of 0.624. For the same compound, the relative viability (201T; first compound 2.53 µM) was 0.569, the relative viability (EMC-BAC-2; first compound 0.08 µM) was 1.08 and the relative viability (EMC-BAC-2; first compound 0.8 µM) was 1.08. For the same compound, the relative viability (EMC-BAC-2; first compound 2.53 µM) was 1.16, the relative viability (NCI-H596; first compound 0.08 µM) was 1.13 and the relative viability (NCI-H596; first compound 0.253 µM) was 1.01. It also gave a relative viability (NCI-H596; first compound 0.8 µM) of 1.06, a relative viability (NCI-H596; first compound 2.53 µM) of 1.22 and a relative viability (NCI-H650; first compound 0.08 µM) of 1.09. The relative viability (NCI-H650; first compound 0.253 µM) was 0.892, the relative viability (NCI-H650; first compound 0.8 µM) was 0.943 and the relative viability (NCI-H650; first compound 2.53 µM) was 1.11. The relative viability (NCI-H838; first compound 0.08 µM) was 0.91, the relative viability (NCI-H838; first compound 0.253 µM) was 0.909 and the relative viability (NCI-H838; first compound 0.8 µM) was 0.912. The relative viability (NCI-H838; first compound 2.53 µM) was 0.956, the relative viability (NCI-H2087; first compound 0.08 µM) was 1.28 and the relative viability (NCI-H2087; first compound 0.253 µM) was 1.22. The relative viability (NCI-H2087; first compound 0.8 µM) was 1.29, the relative viability (NCI-H2087; first compound 2.53 µM) was 1.29 and the relative viability (NCI-H23; first compound 0.08 µM) was 0.224. For the same compound, the relative viability (NCI-H23; first compound 0.253 µM) was 0.238, the relative viability (NCI-H23; first compound 0.8 µM) was 0.196 and the relative viability (NCI-H23; first compound 2.53 µM) was 0.26. The relative viability (NCI-H1395; first compound 0.08 µM) was 0.417, the relative viability (NCI-H1395; first compound 0.253 µM) was 0.349 and the relative viability (NCI-H1395; first compound 0.8 µM) was 0.401. For the same compound, the relative viability (NCI-H1395; first compound 2.53 µM) was 0.441.

Reference: the supplement of paper PMC10307832
